Converted amounts (≈) assume the structure as drawn. The source made the active and inactive calls. No cut-off for these calls is given here.
Legend:
Format in all cases: functional
Staphylococcus aureus [1] = experiment: Antibacterial activity against Staphylococcus aureus at 25 ug/ml after 24 hrs by agar well diffusion method; conditions: read-out: DIZ
Staphylococcus aureus [2] = experiment: Antibacterial activity against Staphylococcus aureus at 50 ug/ml after 24 hrs by agar well diffusion method; conditions: read-out: DIZ
Staphylococcus aureus [3] = experiment: Antibacterial activity against Staphylococcus aureus at 75 ug/ml after 24 hrs by agar well diffusion method; conditions: read-out: DIZ
Staphylococcus aureus [4] = experiment: Antibacterial activity against Staphylococcus aureus at 100 ug/ml after 24 hrs by agar well diffusion method; conditions: read-out: DIZ
Bacillus subtilis [5] = experiment: Antibacterial activity against Bacillus subtilis at 25 ug/ml after 24 hrs by agar well diffusion method; conditions: read-out: DIZ
Bacillus subtilis [6] = experiment: Antibacterial activity against Bacillus subtilis at 50 ug/ml after 24 hrs by agar well diffusion method; conditions: read-out: DIZ
Bacillus subtilis [7] = experiment: Antibacterial activity against Bacillus subtilis at 75 ug/ml after 24 hrs by agar well diffusion method; conditions: read-out: DIZ
Bacillus subtilis [8] = experiment: Antibacterial activity against Bacillus subtilis at 100 ug/ml after 24 hrs by agar well diffusion method; conditions: read-out: DIZ
Escherichia coli [9] = experiment: Antibacterial activity against Escherichia coli at 25 ug/ml after 24 hrs by agar well diffusion method; conditions: read-out: DIZ
Escherichia coli [10] = experiment: Antibacterial activity against Escherichia coli at 50 ug/ml after 24 hrs by agar well diffusion method; conditions: read-out: DIZ
Escherichia coli [11] = experiment: Antibacterial activity against Escherichia coli at 75 ug/ml after 24 hrs by agar well diffusion method; conditions: read-out: DIZ
Escherichia coli [12] = experiment: Antibacterial activity against Escherichia coli at 100 ug/ml after 24 hrs by agar well diffusion method; conditions: read-out: DIZ
Klebsiella pneumoniae [13] = experiment: Antibacterial activity against Klebsiella pneumoniae at 25 ug/ml after 24 hrs by agar well diffusion method
Klebsiella pneumoniae [14] = experiment: Antibacterial activity against Klebsiella pneumoniae at 50 ug/ml after 24 hrs by agar well diffusion method
Klebsiella pneumoniae [15] = experiment: Antibacterial activity against Klebsiella pneumoniae at 75 ug/ml after 24 hrs by agar well diffusion method
Klebsiella pneumoniae [16] = experiment: Antibacterial activity against Klebsiella pneumoniae at 100 ug/ml after 24 hrs by agar well diffusion method
Staphylococcus aureus [17] = experiment: Antibacterial activity against methicillin resistant Staphylococcus aureus MRSA090 at 25 ug/ml after 24 hrs by agar well diffusion method; conditions: MRSA090, 24 h, read-out: DIZ
Staphylococcus aureus [18] = experiment: Antibacterial activity against methicillin resistant Staphylococcus aureus MRSA090 at 50 ug/ml after 24 hrs by agar well diffusion method; conditions: MRSA090, 24 h, read-out: DIZ
Staphylococcus aureus [19] = experiment: Antibacterial activity against methicillin resistant Staphylococcus aureus MRSA090 at 75 ug/ml after 24 hrs by agar well diffusion method; conditions: MRSA090, 24 h, read-out: DIZ
Staphylococcus aureus [20] = experiment: Antibacterial activity against methicillin resistant Staphylococcus aureus MRSA090 at 100 ug/ml after 24 hrs by agar well diffusion method; conditions: MRSA090, 24 h, read-out: DIZ
Aspergillus niger [21] = experiment: Antifungal activity against Aspergillus niger at 25 ug/ml after 48 hrs by agar well diffusion method; conditions: read-out: DIZ
Aspergillus niger [22] = experiment: Antifungal activity against Aspergillus niger at 50 ug/ml after 48 hrs by agar well diffusion method; conditions: read-out: DIZ
Aspergillus niger [23] = experiment: Antifungal activity against Aspergillus niger at 75 ug/ml after 48 hrs by agar well diffusion method; conditions: read-out: DIZ
Aspergillus niger [24] = experiment: Antifungal activity against Aspergillus niger at 100 ug/ml after 48 hrs by agar well diffusion method; conditions: read-out: DIZ
Fusarium verticillioides [25] = experiment: Antifungal activity against Fusarium moniliforme at 25 ug/ml after 48 hrs by agar well diffusion method; conditions: read-out: DIZ
Fusarium verticillioides [26] = experiment: Antifungal activity against Fusarium moniliforme at 50 ug/ml after 48 hrs by agar well diffusion method; conditions: read-out: DIZ
Fusarium verticillioides [27] = experiment: Antifungal activity against Fusarium moniliforme at 75 ug/ml after 48 hrs by agar well diffusion method; conditions: read-out: DIZ
Fusarium verticillioides [28] = experiment: Antifungal activity against Fusarium moniliforme at 100 ug/ml after 48 hrs by agar well diffusion method; conditions: read-out: DIZ
Fusarium oxysporum [29] = experiment: Antifungal activity against Fusarium oxysporum at 25 ug/ml after 48 hrs by agar well diffusion method; conditions: read-out: DIZ
Fusarium oxysporum [30] = experiment: Antifungal activity against Fusarium oxysporum at 50 ug/ml after 48 hrs by agar well diffusion method; conditions: read-out: DIZ
Fusarium oxysporum [31] = experiment: Antifungal activity against Fusarium oxysporum at 75 ug/ml after 48 hrs by agar well diffusion method; conditions: read-out: DIZ
Fusarium oxysporum [32] = experiment: Antifungal activity against Fusarium oxysporum at 100 ug/ml after 48 hrs by agar well diffusion method; conditions: read-out: DIZ
Klebsiella pneumoniae [33] = experiment: Antibacterial activity against Klebsiella pneumoniae incubated for overnight by microdilution method
Staphylococcus aureus [34] = experiment: Antibacterial activity against Staphylococcus aureus incubated for overnight by microdilution method
Bacillus subtilis [35] = experiment: Antibacterial activity against Bacillus subtilis incubated for overnight by microdilution method
Escherichia coli [36] = experiment: Antibacterial activity against Escherichia coli incubated for overnight by microdilution method
Aspergillus niger [37] = experiment: Antifungal activity against Aspergillus niger after 48 to 72 hrs by microdilution method
Fusarium verticillioides [38] = experiment: Antifungal activity against Fusarium moniliforme after 48 to 72 hrs by microdilution method
Fusarium oxysporum [39] = experiment: Antifungal activity against Fusarium oxysporum after 48 to 72 hrs by microdilution method

Structure (SMILES)	zone of inhibition at 25 µg/mL (Staphylococcus aureus [1])	zone of inhibition at 50 µg/mL (Staphylococcus aureus [2])	zone of inhibition at 75 µg/mL (Staphylococcus aureus [3])	zone of inhibition at 100 µg/mL (Staphylococcus aureus [4])	zone of inhibition at 25 µg/mL (Bacillus subtilis [5])	zone of inhibition at 50 µg/mL (Bacillus subtilis [6])	zone of inhibition at 75 µg/mL (Bacillus subtilis [7])	zone of inhibition at 100 µg/mL (Bacillus subtilis [8])	zone of inhibition at 25 µg/mL (Escherichia coli [9])	zone of inhibition at 50 µg/mL (Escherichia coli [10])	zone of inhibition at 75 µg/mL (Escherichia coli [11])	zone of inhibition at 100 µg/mL (Escherichia coli [12])	zone of inhibition at 25 µg/mL (Staphylococcus aureus [17])	zone of inhibition at 50 µg/mL (Staphylococcus aureus [18])	zone of inhibition at 75 µg/mL (Staphylococcus aureus [19])	zone of inhibition at 100 µg/mL (Staphylococcus aureus [20])	zone of inhibition at 25 µg/mL (Aspergillus niger [21])	zone of inhibition at 50 µg/mL (Aspergillus niger [22])	zone of inhibition at 75 µg/mL (Aspergillus niger [23])	zone of inhibition at 100 µg/mL (Aspergillus niger [24])	further results
Cc1cccc2nc(N/N=C/c3ccc(F)cc3F)sc12	5 mm	8 mm	11 mm	15 mm	7 mm	10 mm	13 mm	15 mm	4 mm	7 mm	11 mm	14 mm	10 mm	13 mm	16 mm	19 mm	17 mm	24 mm	29 mm	30 mm	diameter of the inhibition zone (DIZ) (Klebsiella pneumoniae [13]): inactive; diameter of the inhibition zone (DIZ) (Klebsiella pneumoniae [14]): inactive; diameter of the inhibition zone (DIZ) (Klebsiella pneumoniae [15]): inactive; diameter of the inhibition zone (DIZ) (Klebsiella pneumoniae [16]): inactive; zone of inhibition at 25 µg/mL (Fusarium verticillioides [25]): 18 mm; zone of inhibition at 50 µg/mL (Fusarium verticillioides [26]): 23 mm; zone of inhibition at 75 µg/mL (Fusarium verticillioides [27]): 28 mm; zone of inhibition at 100 µg/mL (Fusarium verticillioides [28]): 33 mm; zone of inhibition at 25 µg/mL (Fusarium oxysporum [29]): 10 mm; zone of inhibition at 50 µg/mL (Fusarium oxysporum [30]): 13 mm; zone of inhibition at 75 µg/mL (Fusarium oxysporum [31]): 16 mm; zone of inhibition at 100 µg/mL (Fusarium oxysporum [32]): 20 mm; MIC (Klebsiella pneumoniae [33]): 22 µg/mL (≈ 72.5 µM); MIC (Staphylococcus aureus [34]): 23 µg/mL (≈ 75.8 µM); MIC (Bacillus subtilis [35]): 25 µg/mL (≈ 82.4 µM); MIC (Escherichia coli [36]): 24 µg/mL (≈ 79.1 µM); MIC (Aspergillus niger [37]): 26 µg/mL (≈ 85.7 µM); MIC (Fusarium verticillioides [38]): 20 µg/mL (≈ 65.9 µM); MIC (Fusarium oxysporum [39]): 18 µg/mL (≈ 59.3 µM)
Cc1cccc2nc(N/N=C/c3ccc(Br)cc3Br)sc12	11 mm	15 mm	18 mm	21 mm	13 mm	17 mm	24 mm	27 mm	5 mm	8 mm	12 mm	16 mm	8 mm	12 mm	15 mm	17 mm	24 mm	29 mm	36 mm	40 mm	zone of inhibition at 25 µg/mL (Klebsiella pneumoniae [13]; read-out: DIZ): 8 mm; zone of inhibition at 50 µg/mL (Klebsiella pneumoniae [14]; read-out: DIZ): 11 mm; zone of inhibition at 75 µg/mL (Klebsiella pneumoniae [15]; read-out: DIZ): 15 mm; zone of inhibition at 100 µg/mL (Klebsiella pneumoniae [16]; read-out: DIZ): 20 mm; zone of inhibition at 25 µg/mL (Fusarium verticillioides [25]): 21 mm; zone of inhibition at 50 µg/mL (Fusarium verticillioides [26]): 27 mm; zone of inhibition at 75 µg/mL (Fusarium verticillioides [27]): 32 mm; zone of inhibition at 100 µg/mL (Fusarium verticillioides [28]): 41 mm; zone of inhibition at 25 µg/mL (Fusarium oxysporum [29]): 16 mm; zone of inhibition at 50 µg/mL (Fusarium oxysporum [30]): 24 mm; zone of inhibition at 75 µg/mL (Fusarium oxysporum [31]): 30 mm; zone of inhibition at 100 µg/mL (Fusarium oxysporum [32]): 38 mm; MIC (Klebsiella pneumoniae [33]): 20 µg/mL (≈ 47 µM); MIC (Staphylococcus aureus [34]): 28 µg/mL (≈ 65.9 µM); MIC (Bacillus subtilis [35]): 28 µg/mL (≈ 65.9 µM); MIC (Escherichia coli [36]): 24 µg/mL (≈ 56.5 µM); MIC (Aspergillus niger [37]): 20 µg/mL (≈ 47 µM); MIC (Fusarium verticillioides [38]): 18 µg/mL (≈ 42.3 µM); MIC (Fusarium oxysporum [39]): 16 µg/mL (≈ 37.6 µM)

Reference: ChEMBL document CHEMBL4020788, “Synthesis, SAR and molecular docking studies of benzo[d]thiazole-hydrazones as potential antibacterial and antifungal agents” (2017)
